# Publication PMC5987058, “Therapeutic Potential of a Scorpion Venom-Derived Antimicrobial Peptide and Its Homologs Against Antibiotic-Resistant Gram-Positive Bacteria” (Frontiers in Microbiology, 2018)
# Where two headings read alike, the source gives them in different places. Ends that are not written are not given here.
# Experiments:
# [1] = tested on: Bacillus subtilis AB91021; assay: MIC, broth microdilution; type: cell-based; conditions: LB medium, 10^5–10^6 CFU/mL, 16–18 h at 37°C, triplicate
# Description: (§1) The antimicrobial activity was determined via a broth microdilution assay according to the procedure recommended by the Clinical and Laboratory Standards Institute with some modifications ([Hou et al., 2011]; [Li et al., 2016]). Bacteria were cultured in Luria-Bertani (LB) broth to OD600 = 0.6 at 37°C, then diluted to 10^5–10^6 CFU/mL in LB medium. Peptides were serially double diluted to a gradient concentration range from 48.3 to 1.5 μM in physiological saline. Eighty microliters of the bacterial suspension and 20 μL of diluted peptide at varying concentrations were added to 96-well plates, and then incubated for 16–18 h at 37°C with continuous shaking at 250 rpm. The antimicrobial activity of ampicillin and kanamycin were also tested as positive controls. Experiments were performed in triplicate. The minimum inhibitory concentration (MIC) was determined as the lowest peptide concentration at which no bacterial growth was observed.
# [2] = tested on: Bacillus thuringiensis AB92037; assay: MIC, broth microdilution; type: cell-based; conditions: LB medium, 10^5–10^6 CFU/mL, 16–18 h at 37°C, triplicate
# Description: as §1
# [3] = tested on: Escherichia coli AB94012; assay: MIC, broth microdilution; type: cell-based; conditions: LB medium, 10^5–10^6 CFU/mL, 16–18 h at 37°C, triplicate
# Description: as §1
# [4] = tested on: Escherichia coli ATCC25922; assay: MIC, broth microdilution; type: cell-based; conditions: LB medium, 10^5–10^6 CFU/mL, 16–18 h at 37°C, triplicate
# Description: as §1
# [5] = tested on: Micrococcus luteus AB93113; assay: MIC, broth microdilution; type: cell-based; conditions: LB medium, 10^5–10^6 CFU/mL, 16–18 h at 37°C, triplicate
# Description: as §1
# [6] = tested on: Pseudomonas aeruginosa ATCC9027; assay: MIC, broth microdilution; type: cell-based; conditions: LB medium, 10^5–10^6 CFU/mL, 16–18 h at 37°C, triplicate
# Description: as §1
# [7] = tested on: Staphylococcus aureus AB208193; assay: MIC, broth microdilution; type: cell-based; conditions: LB medium, 10^5–10^6 CFU/mL, 16–18 h at 37°C, triplicate
# Description: as §1
# [8] = tested on: Staphylococcus aureus ATCC25923; assay: MIC, broth microdilution; type: cell-based; conditions: LB medium, 10^5–10^6 CFU/mL, 16–18 h at 37°C, triplicate
# Description: as §1
# [9] = tested on: Staphylococcus aureus ATCC6538; assay: MIC, broth microdilution; type: cell-based; conditions: LB medium, 10^5–10^6 CFU/mL, 16–18 h at 37°C, triplicate
# Description: as §1
# [10] = tested on: Staphylococcus epidermidis AB208187; assay: MIC, broth microdilution; type: cell-based; conditions: LB medium, 10^5–10^6 CFU/mL, 16–18 h at 37°C, triplicate
# Description: as §1
# [11] = tested on: Staphylococcus epidermidis AB208188; assay: MIC, broth microdilution; type: cell-based; conditions: LB medium, 10^5–10^6 CFU/mL, 16–18 h at 37°C, triplicate
# Description: as §1
# [12] = tested on: MRSA P1374; assay: MIC, broth microdilution; type: cell-based, Staphylococcus aureus; conditions: methicillin-resistant clinical isolate, LB medium, 10^5–10^6 CFU/mL, 16–18 h at 37°C, triplicate
# Description: as §1
# [13] = tested on: MRSA P1381; assay: MIC, broth microdilution; type: cell-based, Staphylococcus aureus; conditions: methicillin-resistant clinical isolate, LB medium, 10^5–10^6 CFU/mL, 16–18 h at 37°C, triplicate
# Description: as §1
# [14] = tested on: PRSA P1389; assay: MIC, broth microdilution; type: cell-based, Staphylococcus aureus; conditions: penicillin-resistant clinical isolate, LB medium, 10^5–10^6 CFU/mL, 16–18 h at 37°C, triplicate
# Description: as §1
# [15] = tested on: S. aureus AB94004; assay: Competition assay with LPS or LTA (MIC); type: cell-based, Staphylococcus aureus; conditions: 30 min, n = 3; for MIC, peptide treated with LPS 1: 1 mg/mL peptide + equal volume 5 mg/mL LPS from E. coli; for MIC, peptide treated with LTA: 1 mg/mL peptide + equal volume 5 mg/mL LTA from S. aureus; for MIC, peptide treated with LPS 1+LTA: peptide incubated with LPS 1 and LTA
# Description: 1 mg/mL of peptides were incubated with an equal volume of 5 mg/mL of the lipopolysaccharide (LPS, Sigma-Aldrich: L3012/L8643) or lipoteichoic acid (LTA, Sigma-Aldrich: L2515) for 30 min. The MICs of peptides treated with LPS or LTA against S. aureus AB94004 were subsequently measured.
# [16] = tested on: Staphylococcus aureus AB94004; assay: MIC, broth microdilution; type: cell-based; conditions: legend of Figure 6
# Description: as §1
# [17] = tested on: Staphylococcus aureus ATCC25923; conditions: comparison values; ref Zeng et al., 2004, 2012; Cao et al., 2012a; cited from earlier work
# Text: Table 1 In Vitro antimicrobial activities of marcin-18 and its homologs compared with other peptides and antibiotics. | column: MIC (μM) / BmKn2; MIC (μM) / Kana
# [18] = tested on: Bacillus subtilis AB91021; conditions: comparison values; ref Zeng et al., 2004, 2012; Cao et al., 2012a; cited from earlier work
# Text: Table 1 In Vitro antimicrobial activities of marcin-18 and its homologs compared with other peptides and antibiotics. | column: MIC (μM) / BmKn2; MIC (μM) / BmKb1; MIC (μM) / Kana
# [19] = tested on: Escherichia coli ATCC25922; conditions: comparison values; ref Zeng et al., 2004, 2012; Cao et al., 2012a; cited from earlier work
# Text: (§2) Table 1 In Vitro antimicrobial activities of marcin-18 and its homologs compared with other peptides and antibiotics. | column: MIC (μM) / BmKn2; MIC (μM) / Amp; MIC (μM) / Kana
# [20] = tested on: Staphylococcus aureus AB94004; conditions: comparison values; ref Zeng et al., 2004, 2012; Cao et al., 2012a; cited from earlier work
# Text: as §2
# [21] = tested on: S. aureus AB94004; assay: SYTOX green fluorescence measurement (membrane integrity); type: cell-based, Staphylococcus aureus; conditions: positive control; 5 μM SYTOX green; n = 3
# Description: S. aureus AB94004 were cultured to exponential phase (ca. 10^7 CFU/mL), centrifuged and suspended in physiological saline. Then the fluorescence dye SYTOX green (Invitrogen) was added at a final concentration of 5 μM. After incubation for 10 min, 50 μL bacterial culture and equal volume of peptides serially diluted in physiological saline at final concentrations of 1 × MIC, 2 × MIC, and 4 × MIC were added in a Greiner 96-well flat-bottom black plate. Physiological saline and MSI 78 were used as negative and positive controls. Fluorescence was measured over 30 min at the excitation and emission wavelengths of 488 and 525 nm, respectively.
# [22] = tested on: MRSA P1381; assay: Mouse peritonitis model; type: in vivo, BALB/c mice; conditions: n = 6
# Description: Six to eight-week-old male BALB/c mice (18–21 g) were purchased from the Animal Center for Disease Control and Prevention (Hubei, China) and maintained under specific pathogen-free conditions at 25 ± 2°C and 50 ± 5% humidity, on a 12 h/12 h light/dark cycle.
# All methods were performed in accordance with the relevant guidelines ([Dai et al., 2008]; [Peng et al., 2017]). The mice were intraperitoneally (i.p.) injected with 0.5 mL/mouse (5.85 × 10^7 CFU) of the exponential phase MRSA P1381 inoculum in physiological saline containing 5% (wt/v) mucin. At 1 h after the bacterial infection, the mice were i.p. injected with 0.4 mL/mouse of physiological saline (I) (to serve as a negative control), marcin-18 peptide (10 mg/kg) (II), marcin-18 peptide (25 mg/kg) (III), meucin-18 peptide (25 mg/kg) (IV), megicin-18 peptide (25 mg/kg) (V), and vancomycin (25 mg/kg) (VI). The vancomycin dose was set based on previous studies ([Cavanagh et al., 2013]; [Wang et al., 2018]). Each group included 6 mice. After another 24 h post administration, subject peritonea were lavaged with 1 mL of physiological saline and lavage fluids were then collected. Ascites were diluted and plated on LB agar so that the number of bacterial colonies could be counted. The ability of the three peptides to rescue mice from lethal bacteremia was observed 2–4 times daily and survival was tracked for 7 days.
# [23] = tested on: MRSA P1369; conditions: methicillin-resistant clinical isolate; comparison values; ref Zeng et al., 2004, 2012; Cao et al., 2012a; cited from earlier work
# Text: (§3) Table 1 In Vitro antimicrobial activities of marcin-18 and its homologs compared with other peptides and antibiotics. | column: MIC (μM) / BmKn2; MIC (μM) / Van
# [24] = tested on: MRSA P1374; conditions: methicillin-resistant clinical isolate; comparison values; ref Zeng et al., 2004, 2012; Cao et al., 2012a; cited from earlier work
# Text: as §3
# [25] = tested on: MRSA P1381; conditions: methicillin-resistant clinical isolate; comparison values; ref Zeng et al., 2004, 2012; Cao et al., 2012a; cited from earlier work
# Text: as §3
# [26] = tested on: MRSA P1386; conditions: methicillin-resistant clinical isolate; comparison values; ref Zeng et al., 2004, 2012; Cao et al., 2012a; cited from earlier work
# Text: as §3
# [27] = tested on: PRSA P1383; conditions: penicillin-resistant clinical isolate; comparison values; ref Zeng et al., 2004, 2012; Cao et al., 2012a; cited from earlier work
# Text: as §3
# [28] = tested on: PRSA P1389; conditions: penicillin-resistant clinical isolate; comparison values; ref Zeng et al., 2004, 2012; Cao et al., 2012a; cited from earlier work
# Text: as §3
Compound,MIC [1] [µM],MIC [2] [µM],MIC [3] [µM],MIC [4] [µM],MIC [5] [µM],MIC [6] [µM],MIC [7] [µM],MIC [8] [µM],MIC [9] [µM],MIC [10] [µM],MIC [11] [µM],MIC [12] [µM],MIC [13] [µM],MIC [14] [µM],MIC of control substances [16] [µM],further results
FFGHLFKLATKIIPSLFR-NH2 [Marcin-18],2.9,2.9,11.7,5.9,23.4,5.9,2.9,2.9,1.5,2.9,2.9,2.9,1.5,2.9,,"MIC, peptide treated with LPS 1 [15]: 2.9 µM; MIC, peptide treated with LPS 2 ([15]; 1 mg/mL peptide + equal volume 5 mg/mL LPS from P. aeruginosa): 2.9 µM; MIC, peptide treated with LTA [15]: 2.9 µM; MIC, peptide treated with LPS 1+LTA [15]: 2.9 µM"
"NC[C@H]1O[C@H](O[C@H]2[C@H](O)[C@@H](O[C@H]3O[C@H](CO)[C@@H](O)[C@H](N)[C@H]3O)[C@H](N)C[C@@H]2N)[C@H](O)[C@@H](O)[C@@H]1O [Kana, kanamycin]",,,,,,,,,,,,,,,5.4,MIC [17]: 10.7 µM; MIC [18]: 42.9 µM; MIC [19]: 21.5 µM; MIC [20]: 5.4 µM
GIGKFLKKAKKFGKAFVKILKK-NH2 (C-terminus assumed) [MSI 78],,,,,,,,,,,,,,,2.5,SYTOX green fluorescence [21]: stable increase
FFGALFKLATKIIPSLFR-NH2 [Megicin-18],3.0,1.5,>48.3,12.1,>48.3,12.1,3.0,3.0,1.5,1.5,1.5,3.0,3.0,1.5,,"MIC, peptide treated with LPS 1 [15]: 3 µM; MIC, peptide treated with LTA [15]: 3 µM; MIC, peptide treated with LPS 1+LTA [15]: 3 µM"
"CN[C@H](CC(C)C)C(=O)N[C@H]1C(=O)N[C@@H](CC(N)=O)C(=O)N[C@H]2C(=O)N[C@H]3C(=O)N[C@H](C(=O)N[C@H](C(=O)O)c4cc(O)cc(O)c4-c4cc3ccc4O)[C@H](O)c3ccc(c(Cl)c3)Oc3cc2cc(c3O[C@@H]2O[C@H](CO)[C@@H](O)[C@H](O)[C@H]2O[C@H]2C[C@](C)(N)[C@H](O)[C@H](C)O2)Oc2ccc(cc2Cl)[C@H]1O [Van, vancomycin]",,,,,,,,,,,,,,,,"survival of infected mice ([22]; 25 mg/kg i.p. single dose 1 h after i.p. 5.85 × 10^7 CFU MRSA P1381, 7 days): 100%; bacteria in ascites of antibiotic-treated group ([22]; 25 mg/kg i.p., peritoneal lavage 24 h after administration): few detectable bacteria; MIC [23]: 4.2 µM; MIC [24]: 4.2 µM; MIC [25]: 2.1 µM; MIC [26]: 2.1 µM; MIC [27]: 4.2 µM; MIC [28]: 4.2 µM"
"CC1(C)S[C@@H]2[C@H](NC(=O)[C@H](N)c3ccccc3)C(=O)N2[C@H]1C(=O)O [Amp, ampicillin]",,,,,,,,,,,,,,,,MIC [19]: 33.7 µM; MIC [20]: 67.3 µM
FFGHLFKLATKIIPSLFQ-NH2 [Meucin-18],3.0,3.0,23.7,11.9,47.5,11.9,3.0,3.0,1.5,3.0,1.5,3.0,1.5,3.0,,
CC[C@H](C)[C@H](NC(=O)CN)C(=O)NCC(=O)N[C@@H](C)C(=O)N[C@H](C(=O)N[C@@H](CC(C)C)C(=O)N[C@@H](CCCCN)C(=O)N[C@H](C(=O)N[C@@H](CC(C)C)C(=O)N[C@H](C(=O)N[C@H](C(=O)NCC(=O)N[C@@H](CC(C)C)C(=O)N1CCC[C@H]1C(=O)N[C@@H](C)C(=O)N[C@@H](CC(C)C)C(=O)N[C@H](C(=O)N[C@@H](CO)C(=O)N[C@@H](Cc1c[nH]c2ccccc12)C(=O)N[C@H](C(=O)N[C@@H](CCCCN)C(=O)N[C@@H](CCCNC(=N)N)C(=O)N[C@@H](CCCCN)C(=O)N[C@@H](CCCNC(=N)N)C(=O)N[C@@H](CCC(N)=O)C(=O)N[C@@H](CCC(N)=O)C(N)=O)[C@@H](C)CC)[C@@H](C)CC)[C@@H](C)O)[C@@H](C)O)C(C)C)C(C)C [melittin],,,,,,,,,,,,,,,2.2,
